From ChEMBL document CHEMBL1152675, “3,4-Dihydropyrimido(1,2-a)indol-10(2H)-ones as potent non-peptidic inhibitors of caspase-3” (Bioorg Med Chem, 2009)

Experiment: Chemical stability in 90% deionized water after 24 hrs by NMR spectroscopy
Assay type: physicochemical
Settings: read-out: Stability
With `COC[C@@H]1CCCN1S(=O)(=O)c1ccc2c(c1)C(=O)C1=NCC3(CCCC3)CN12` the remaining at 24 h was 87%.
`COC[C@@H]1CCCN1S(=O)(=O)c1ccc2c(c1)C(=O)C1=NCC3(CCC3)CN12` showed a remaining at 24 h of 74%.
With `O=C1C2=NCC3(CCC3)CN2c2ccc(S(=O)(=O)N3CCC[C@H]3COc3ccccc3)cc21` the remaining at 24 h was 69%.
Compound `O=C1C2=NCC3(CCCCC3)CN2c2ccc(S(=O)(=O)N3CCC[C@H]3COc3ccccc3)cc21` has a remaining at 24 h of 72%.
`O=C1C2=NCC3(CCCC3)CN2c2ccc(S(=O)(=O)N3CCC[C@H]3COc3ccccc3)cc21` showed a remaining at 24 h of 89%.
Work on `COC[C@@H]1CCCN1S(=O)(=O)c1ccc2c(c1)C(=O)C1=NCC3(CCCCC3)CN12` yielded a remaining at 24 h of 71%.
